Usually inhibition stands for the relative decrease from the control value, in per cent. In general, IC50 refers to the concentration that gives 50% inhibition.

Experiment [1] has as its system guinea pig ileum (LTD4 induced contractions). Description: Guinea-pig ileum assay: inhibition of LTD4 induced contractions. Particulars: for inhibition at 0.001 µg/mL / inhibition at 0.01 µg/mL / inhibition at 0.1 µg/mL / inhibition at 1 µg/mL / inhibition at 10 µg/mL: Cavia porcellus, LTD4 0.3 ng/mL, read-out: % inhibition of LTD4 induced contractions, G.P. ileum assay; for inhibition at 0.001 µg/mL: drug conc. 0.001 μg/mL; for inhibition at 0.01 µg/mL: drug conc. 0.01 μg/mL; for inhibition at 0.1 µg/mL: drug conc. 0.1 μg/mL; for inhibition at 1 µg/mL: drug conc. 1 μg/mL; for inhibition at 10 µg/mL: drug conc. 10 μg/mL; for ability to inhibit LTD4 contractions of the guinea pig ileum, times greater than the reference compound: relative to the reference compound of Table I. Also on record: species or system male Hartley strain guinea pigs. On the procedure:
Guinea-Pig Ileum Preparation for Evaluation of Antagonists of Leukotriene D4 and Other Mediators
Tissue--Sections of ileum were taken from male Hartley strain guinea pigs (Charles River, U.S.A.) 300 to 500 g which were sacrificed by a blow to the head and exsanguinated. Terminal ileum was removed, cleaned with warm Tyrode's solution and then divided into segments of approximately […]. The segments of ileum were then mounted under 1 g tension in a 20 mL organ bath containing 10 mL of Tyrode's solution with the following composition (mM): NaCl, 137; KCl, 2.7; MgSO4, 7H2 O, 0.8; CaCl2, 1.8; NaH2 PO4, 0.42; NaHCO3, 11.9; Dextrose, 5.6. The bathing solution was continuously aerated with 95% O2 and 5% CO2 and bath temperature was maintained at 37° C. The beta adrenoceptor blocker, timolol (0.5 μg/mL) and the antimuscarinic agent atropine (1.0 μM) were present in the Tyrodeμs solution. Isometric tension changes were recorded using Grass FTO3 force displacement transducers (Grass Instrument G., Quincy, Mass.) connected to a Beckman Type R Dynograph. In order to wash the tissue, the bath solution was automatically aspirated and replaced with a constant volume (10 mL) of fresh solution by means of timer controlled solenoid valves.
After the tissues were stable a standard dose of LTD4 (0.3 ng/mL) was repeatedly added to the bath every 4-5 minutes (min contact, 30 sec wash, 3 min rest) until a consistent response was obtained (minimum of 4 responses). Following each addition of LTD4 the tissue was washed with Tyrode's solution until baseline tension was re-established. After consistent responses were obtained the tissues were used to screen compounds.
Usually, 10 μL of a 10 mg/mL solution of the compound to be tested was added to the bath 30 secs prior to the addition of LTD4. The compound and LTD4 remained in contact with the tissue until the maximum tension was developed (1 min) after which the tissue was washed repeatedly until the baseline was re-established. Percent inhibition relative to the immediately preceding control response was calculated for each dose of test compound. […] Provided the response was inhibited by less than 20%, the tissue was used immediately to evaluate another compound; when the response was inhibited by greater than 20%, cycles of LTD4 alone were added until a consistent response was re-established.

Another experiment has as its target T1, LTD4 binding (Cavia porcellus, UniProt Q2NNR5).
T1 construct: from tissue
T1 sequence (Q2NNR5 1-340): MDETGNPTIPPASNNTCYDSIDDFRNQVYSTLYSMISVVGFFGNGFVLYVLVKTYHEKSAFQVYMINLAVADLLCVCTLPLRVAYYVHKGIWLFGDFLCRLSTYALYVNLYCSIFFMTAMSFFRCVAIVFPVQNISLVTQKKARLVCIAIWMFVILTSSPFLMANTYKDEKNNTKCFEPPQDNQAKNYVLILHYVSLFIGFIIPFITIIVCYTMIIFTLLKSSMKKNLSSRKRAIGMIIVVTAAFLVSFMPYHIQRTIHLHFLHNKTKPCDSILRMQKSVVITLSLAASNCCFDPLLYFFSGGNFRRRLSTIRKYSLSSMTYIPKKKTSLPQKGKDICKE
The experiment can be described thus: LTD4 binding assay. Particulars: for IC50: 50% LTD4 bound, unit inferred, read-out: LTD4 binding assay, drug conc. (IC50 values for the numbered examples); for LTD4 binding activity, times greater than the reference compound: relative to the reference compound of Table I. As for the experimental part: The results for LTD4 binding were determined by the method of S. S. Pong and R. N. DeHaven, Proc. Nat. Acad. Sci. U.S.A., 80, 7415-7419 (1983).
The drug concentration in the LTD4 binding assay for the numbered examples are the IC50 values. The LTD4 binding activity of these ranges from at least 14 (Ex. 85) to at least 214 (Ex. 71) times greater than the reference compound. The actual differences are even greater since an IC50 was not obtained for the reference compound.

For `CC(Oc1cccc(OCc2ccc3ccc(Br)cc3n2)c1)C(=O)O` (stereo not drawn) [Example 85, 2-(3-(7-bromoquinolin-2-ylmethoxy)phenoxy)propanoic acid], in experiment [1], the inhibition at 0.001 µg/mL is 0%, the inhibition at 0.01 µg/mL is 10%, the inhibition at 0.1 µg/mL came to 57% and the inhibition at 1 µg/mL is 93%. In experiment [1], the inhibition at 10 µg/mL is 100% and the “ability to inhibit LTD4 contractions of the guinea pig ileum, times greater than the reference compound” value is “about 20 times”. Further, at LTD4 binding, the half-inhibitory concentration (IC50) came to 220 nM and the “LTD4 binding activity, times greater than the reference compound” value is recorded as “at least 14 times”. In addition, on LTD4 binding (at the drug conc. (IC50)), the “% LTD4 bound, LTD4 binding assay” value is listed as 50%.
Consider `CC(Oc1cccc(C#Cc2ccc3ccc(Br)cc3n2)c1)C(=O)O` (stereo not drawn), for which, in experiment [1], the inhibition at 0.001 µg/mL stood at 50%, the inhibition at 0.01 µg/mL is 91%, the inhibition at 0.1 µg/mL stood at 94% and the inhibition at 1 µg/mL was 98%. Besides, the inhibition at 10 µg/mL in experiment [1] was determined as 97%. The concentration for half-maximal inhibition (IC50) at LTD4 binding came out at 96 nM. Further, on LTD4 binding (at the drug conc. (IC50)), the “% LTD4 bound, LTD4 binding assay” value came out at 50%.
Take `CC(Oc1cccc(C2CC2c2ccc3ccc(Cl)cc3n2)c1)c1nn[nH]n1` (stereo not drawn): in experiment [1], the inhibition at 0.01 µg/mL was determined as 37%, the inhibition at 0.1 µg/mL stood at 87%, the inhibition at 1 µg/mL was determined as 96% and the inhibition at 10 µg/mL worked out at 94%. Also, the “% LTD4 bound, LTD4 binding assay” value at LTD4 binding (at the drug conc. (IC50)) is 50%.
Regarding `CC(Oc1cccc(Sc2ccc3ccc(Cl)cc3n2)c1)C(=O)O` (stereo not drawn) [reference compound], in experiment [1], the inhibition at 1 µg/mL stood at 27% and the inhibition at 10 µg/mL was 89%. On LTD4 binding (reference compound, drug conc. 3 × 10^-6 (unit not given)), the “% LTD4 bound, LTD4 binding assay” value is 76%.
As for `CC(Oc1cccc(/C=C/c2ccc3ccc(Cl)cc3n2)c1)C(=O)O` (stereo not drawn), in experiment [1], the inhibition at 0.001 µg/mL worked out at 38%, the inhibition at 0.01 µg/mL was determined as 94%, the inhibition at 0.1 µg/mL came out at 95% and the inhibition at 1 µg/mL came out at 97%. In addition, in experiment [1], the inhibition at 10 µg/mL came to 94%. Also, the “% LTD4 bound, LTD4 binding assay” value on LTD4 binding (at the drug conc. (IC50)) was determined as 50%.
With `CC(Oc1cccc(/C=C/c2ccc3ccc(Cl)cc3n2)c1)c1nn[nH]n1` (racemic) [Example 71, 5-(1-(3-(2-(7-chloroquinolin-2-yl)ethenyl)-phenoxy)ethyl)tetrazole], in experiment [1], the inhibition at 0.001 µg/mL amounted to 67%, the inhibition at 0.01 µg/mL is 92%, the inhibition at 0.1 µg/mL turned out to be 100% and the inhibition at 1 µg/mL amounted to 98%. In experiment [1], the inhibition at 10 µg/mL turned out to be 97% and the “ability to inhibit LTD4 contractions of the guinea pig ileum, times greater than the reference compound” value is on record as “over 1000 times”. Moreover, at LTD4 binding, the IC50 was 14 nM and the “LTD4 binding activity, times greater than the reference compound” value is recorded as “at least 214 times”. The “% LTD4 bound, LTD4 binding assay” value on LTD4 binding (at the drug conc. (IC50)) was 50%.

(Values after patent US4962203A, “2-substituted quinolines useful as leukotriene antagonists” (Merck Frost Canada, Inc., priority 1989, dated 1990).)
